Results published in US10053451B2, “Heterocyclic estrogen receptor modulators and uses thereof” (priority 2015, dated 2018).

Molecular target: T1, estrogen receptor alpha (ESR1) (Homo sapiens, UniProt P03372)
T1 construct: MCF7 cells were trypsinized and washed twice; endogenous in cells; host or cells: MCF7 breast cancer cells
T1 sequence (P03372 1-595): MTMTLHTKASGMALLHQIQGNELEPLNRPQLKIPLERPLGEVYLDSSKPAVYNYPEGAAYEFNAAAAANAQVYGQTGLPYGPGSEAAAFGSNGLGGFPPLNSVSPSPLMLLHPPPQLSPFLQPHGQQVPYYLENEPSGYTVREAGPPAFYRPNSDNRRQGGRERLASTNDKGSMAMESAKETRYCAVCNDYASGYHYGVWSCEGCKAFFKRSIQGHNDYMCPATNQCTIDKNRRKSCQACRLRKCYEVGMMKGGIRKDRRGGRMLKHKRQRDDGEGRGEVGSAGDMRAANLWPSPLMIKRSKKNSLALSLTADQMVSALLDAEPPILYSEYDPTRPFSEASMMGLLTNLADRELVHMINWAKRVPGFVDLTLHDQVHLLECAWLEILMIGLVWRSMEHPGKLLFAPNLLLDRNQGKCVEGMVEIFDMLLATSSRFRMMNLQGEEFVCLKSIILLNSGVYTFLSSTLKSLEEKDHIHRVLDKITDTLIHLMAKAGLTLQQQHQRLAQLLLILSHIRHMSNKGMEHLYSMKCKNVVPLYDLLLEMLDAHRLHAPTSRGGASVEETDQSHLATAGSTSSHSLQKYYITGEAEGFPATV
Experiment: Breast Cancer Cell ERa High Content Fluorescence Imaging Assay (ER-alpha MCF7 Assay)
Format: cell-based
Conditions: MCF7 cells, 4 hours; plateau of maximal effect; DMSO = 0%, 5 nM Fulvestrant = 100% change in ESR1
Experimental: Cell plates were incubated at 37° C., for 4 hours. Fixation and permeabilization were carried out using a Biotek EL406 plate washer and dispenser as follows. […] Samples were incubated 30 minutes. Well contents was aspirated and 50 uL/well of Phosphate Buffered Saline (PBS) containing 0.5% w/v bovine serum albumen, 0.5% v/v Triton X-100 (Antibody Dilution Buffer) was added to each well. Samples were incubated for 30 minutes. Well contents were aspirated and washed 3 times with 100 uL/well of PBS. Immunofluorescence staining of estrogen receptor alpha (ESR1) was carried out using a Biotek EL406 plate washer and dispenser as follows. […] Samples were incubated for 2 hours at room temperature. Samples were washed 4 times with 100 uL/well of PBS. […] Samples were incubated for 2 hours at room temperature. Samples were washed 3 times with 100 uL/well of PBS using a Biotek EL406. Quantitative fluorescence imaging of ESR1 was carried out using a Cellomics Arrayscan V (Thermo). […] Channel 1 (DNA stain) was used to define the nuclear region (Circ). […] The “Robust Fit” method was used to define the inflexion point of curve (EC50) and the plateau of the maximal effect (Sinf).

Row | Structure (SMILES) | ER-alpha MCF7 Sinf (%)
1 | CC(C)=CC1=C(C)c2cc(O)ccc2OC1c1ccc(OCCN2CC(CF)C2)cc1 (stereo not drawn) [Example 16, 2-[4-[2-[3-(Fluoromethyl)azetidin-1-yl]ethoxy]phenyl]-4-methyl-3-(2-methylprop-1-enyl)-2H-chromen-6-ol] | 93.9%
2 | CC1=C(CC(C)C)C(c2ccc(OCCN3CC(CF)C3)cc2)Oc2ccc(O)cc21 (stereo not drawn) [Example 17, 2-(4-(2-(3-(Fluoromethyl)azetidin-1-yl)ethoxy)phenyl)-3-isobutyl-4-methyl-2H-chromen-6-ol] | 93.9%
3 | CC1=C(C2=CCNC2)C(c2ccc(OCCN3CC(CF)C3)cc2)Oc2ccc(O)cc21 (stereo not drawn) [Example 18, 3-(2,5-dihydro-1H-pyrrol-3-yl)-2-(4-(2-(3-(fluoromethyl)azetidin-1-yl)ethoxy)phenyl)-4-methyl-2H-chromen-6-ol] | 90.0%
4 | CC(=O)N1CCC(C2=C(C)c3cc(O)ccc3OC2c2ccc(OCCN3CC(CF)C3)cc2)C1 (stereo not drawn) [Example 19, 1-(3-(2-(4-(2-(3-(Fluoromethyl)azetidin-1-yl)ethoxy)phenyl)-6-hydroxy-4-methyl-2H-chromen-3-yl)pyrrolidin-1-yl)ethanone] | 80%
5 | CC(=O)N1CC=C(C2=C(C)c3cc(O)ccc3OC2c2ccc(OCCN3CC(CF)C3)cc2)C1 (stereo not drawn) [Example 20, 1-(3-(2-(4-(2-(3-(Fluoromethyl)azetidin-1-yl)ethoxy)phenyl)-6-hydroxy-4-methyl-2H-chromen-3-yl)-2,5-dihydro-1H-pyrrol-1-yl)ethanone] | 93.7%
6 | CC1=C(C2=CCC(O)CC2)C(c2ccc(OCCN3CC(CF)C3)cc2)Oc2ccc(O)cc21 (stereo not drawn) [Example 21, 2-(4-(2-(3-(Fluoromethyl)azetidin-1-yl)ethoxy)phenyl)-3-(4-hydroxycyclohex-1-en-1-yl)-4-methyl-2H-chromen-6-ol] | 98.7%
7 | CC1=C(c2ncc(C#N)cc2C)C(c2ccc(OCCN3CC(CF)C3)cc2)Oc2ccc(O)cc21 (stereo not drawn) [Example 22, 2-{4-[2-(3-Fluoromethyl-azetidin-1-yl)-ethoxy]-phenyl}-4-methyl-3-(3-methyl-5-cyano-pyridin-2-yl)-2H-chromen-6-ol] | 97.4%
8 | CC1=C(C2CCOCC2)C(c2ccc(OCCN3CC(CF)C3)cc2)Oc2ccc(O)cc21 (stereo not drawn) [Example 24, 2-(4-(2-(3-(fluoromethyl)azetidin-1-yl)ethoxy)phenyl)-4-methyl-3-(tetrahydro-2H-pyran-4-yl)-2H-chromen-6-ol] | 97.7%
9 | CC1=C(C2=CCC(F)(F)CC2)C(c2ccc(OCCN3CC(CF)C3)cc2)Oc2ccc(O)cc21 (stereo not drawn) [Example 26, 3-(4,4-difluorocyclohex-1-en-1-yl)-2-(4-(2-(3-(fluoromethyl)azetidin-1-yl)ethoxy)phenyl)-4-methyl-2H-chromen-6-ol] | 97.1%
10 | CC1=C(C2CCOC2)C(c2ccc(OCCN3CC(CF)C3)cc2)Oc2ccc(O)cc21 (stereo not drawn) [Example 29, 2-(4-(2-(3-(fluoromethyl)azetidin-1-yl)ethoxy)phenyl)-4-methyl-3-(tetrahydrofuran-3-yl)-2H-chromen-6-ol] | 98.9%
11 | CC1=C(C2=CCOC2)C(c2ccc(OCCN3CC(CF)C3)cc2)Oc2ccc(O)cc21 (stereo not drawn) [Example 30, 3-(2,5-dihydrofuran-3-yl)-2-(4-(2-(3-(fluoromethyl)azetidin-1-yl)ethoxy)phenyl)-4-methyl-2H-chromen-6-ol] | 97.9%
12 | CNC(=O)N1CCC(C2=C(C)c3cc(O)ccc3OC2c2ccc(OCCN3CC(CF)C3)cc2)CC1 (stereo not drawn) [Example 31, 4-(2-(4-(2-(3-(fluoromethyl)azetidin-1-yl)ethoxy)phenyl)-6-hydroxy-4-methyl-2H-chromen-3-yl)-N-methylpiperidine-1-carboxamide] | 85.9%
13 | CC1=C(c2ccncc2C)C(c2ccc(OCCN3CC(CF)C3)cc2)Oc2ccc(O)cc21 (stereo not drawn) [Example 32, 2-{4-[2-(3-Fluoromethyl-azetidin-1-yl)-ethoxy]-phenyl}-4-methyl-3-(3-methyl-pyridin-4-yl)-2H-chromen-6-ol] | 99.4%
14 | CC1=C(c2ncccc2C)C(c2ccc(OCCN3CC(CF)C3)cc2)Oc2ccc(O)cc21 (stereo not drawn) [Example 33, 2-{4-[2-(3-Fluoromethyl-azetidin-1-yl)-ethoxy]-phenyl}-4-methyl-3-(3-methyl-pyridin-2-yl)-2H-chromen-6-ol] | 96.4%
15 | CC1=C(c2cnccc2C)C(c2ccc(OCCN3CC(CF)C3)cc2)Oc2ccc(O)cc21 (stereo not drawn) [Example 34, 2-{4-[2-(3-Fluoromethyl-azetidin-1-yl)-ethoxy]-phenyl}-4-methyl-3-(4-methyl-pyridin-3-yl)-2H-chromen-6-ol] | 97.5%
16 | CC1=C(c2cccnc2C)C(c2ccc(OCCN3CC(CF)C3)cc2)Oc2ccc(O)cc21 (stereo not drawn) [Example 35, 2-{4-[2-(3-Fluoromethyl-azetidin-1-yl)-ethoxy]-phenyl}-4-methyl-3-(2-methyl-pyridin-3-yl)-2H-chromen-6-ol] | 98.5%
17 | CC1=C(c2cncc(C)c2)C(c2ccc(OCCN3CC(CF)C3)cc2)Oc2ccc(O)cc21 (stereo not drawn) [Example 37, 2-{4-[2-(3-Fluoromethyl-azetidin-1-yl)-ethoxy]-phenyl}-4-methyl-3-(5-methyl-pyridin-3-yl)-2H-chromen-6-ol] | 99.2%
18 | CC1=C(c2cncnc2)C(c2ccc(OCCN3CC(CF)C3)cc2)Oc2ccc(O)cc21 (stereo not drawn) [Example 38, 2-{4-[2-(3-Fluoromethyl-azetidin-1-yl)-ethoxy]-phenyl}-4-methyl-3-pyrimidin-5-yl-2H-chromen-6-ol] | 90.3%
19 | CC1=C(c2cnc(N)nc2)C(c2ccc(OCCN3CC(CF)C3)cc2)Oc2ccc(O)cc21 (stereo not drawn) [Example 39, 3-(2-Amino-pyrimidin-5-yl)-2-{4-[2-(3-fluoromethyl-azetidin-1-yl)-ethoxy]-phenyl}-4-methyl-2H-chromen-6-ol] | 95.4%
20 | CC1=C(c2cncc(S(C)(=O)=O)c2)C(c2ccc(OCCN3CC(CF)C3)cc2)Oc2ccc(O)cc21 (stereo not drawn) [Example 41, 2-{4-[2-(3-Fluoromethyl-azetidin-1-yl)-ethoxy]-phenyl}-3-(5-methanesulfonyl-pyridin-3-yl)-4-methyl-2H-chromen-6-ol] | 98.9%
21 | CC1=C(c2cnn(C)c2)C(c2ccc(OCCN3CC(CF)C3)cc2)Oc2ccc(O)cc21 (stereo not drawn) [Example 42, 2-{4-[2-(3-Fluoromethyl-azetidin-1-yl)-ethoxy]-phenyl}-4-methyl-3-(1-methyl-1H-pyrazol-4-yl)-2H-chromen-6-ol] | 95.2%
22 | CC1=C(c2cncc(F)c2)C(c2ccc(OCCN3CC(CF)C3)cc2)Oc2ccc(O)cc21 (stereo not drawn) [Example 43, 2-{4-[2-(3-Fluoromethyl-azetidin-1-yl)-ethoxy]-phenyl}-3-(5-fluoro-pyridin-3-yl)-4-methyl-2H-chromen-6-ol] | 97.3%
23 | CC1=C(c2cncc(C#N)c2)C(c2ccc(OCCN3CC(CF)C3)cc2)Oc2ccc(O)cc21 (stereo not drawn) [Example 44, 5-(2-{4-[2-(3-Fluoromethyl-azetidin-1-yl)-ethoxy]-phenyl}-6-hydroxy-4-methyl-2H-chromen-3-yl)-nicotinonitrile] | 91.8%
24 | CC1=C(C2=CC(=O)CC2)C(c2ccc(OCCN3CC(CF)C3)cc2)Oc2ccc(O)cc21 (stereo not drawn) [Example 45, 3-[2-[4-[2-[3-(fluoromethyl)azetidin-1-yl]ethoxy]phenyl]-6-hydroxy-4-methyl-2H-chromen-3-yl]cyclopent-2-en-1-one] | 96.6%
25 | CC1=C(C2CCC(O)C2)C(c2ccc(OCCN3CC(CF)C3)cc2)Oc2ccc(O)cc21 (stereo not drawn) [Example 46, 2-[4-[2-[3-(fluoromethyl)azetidin-1-yl]ethoxy]phenyl]-3-(3-hydroxycyclopentyl)-4-methyl-2H-chromen-6-ol] | 98.3%
26 | CC1=C(C2=CC(O)CC2)C(c2ccc(OCCN3CC(CF)C3)cc2)Oc2ccc(O)cc21 (stereo not drawn) [Example 47, 2-[4-[2-[3-(fluoromethyl)azetidin-1-yl]ethoxy]phenyl]-3-(3-hydroxycyclopenten-1-yl)-4-methyl-2H-chromen-6-ol] | 95.4%
27 | CC1=C(c2cccc(O)c2)[C@H](c2cnn(CCCN3CC(CF)C3)c2)Oc2ccc(O)cc21 [Example 51, (R)-2-(1-(3-(3-(fluoromethyl)azetidin-1-yl)propyl)-1H-pyrazol-4-yl)-3-(3-hydroxyphenyl)-4-methyl-2H-chromen-6-ol] | 94.7%
